Patent US20180250280A1 (BAYER PHARMA AKTIENGESELLSCHAFT, priority 2015, published 2018)
pIC50: −log10 of the molar value.

Experiments:
human factor XIa = target: T1, human factor XIa (Homo sapiens, UniProt P03951); assay: Measurement of FXIa inhibition (fluorogenic peptide substrate, AMC cleavage); format: biochemical; details: factor XIa from Kordia 0.45 nM; substrate Boc-Glu(OBzl)-Ala-Arg-AMC 10 μM; 30 min at 22° C.; in some cases averages from multiple determinations
T1 construct: purchased Kordia
T1 sequence (P03951 388-625 limits assumed): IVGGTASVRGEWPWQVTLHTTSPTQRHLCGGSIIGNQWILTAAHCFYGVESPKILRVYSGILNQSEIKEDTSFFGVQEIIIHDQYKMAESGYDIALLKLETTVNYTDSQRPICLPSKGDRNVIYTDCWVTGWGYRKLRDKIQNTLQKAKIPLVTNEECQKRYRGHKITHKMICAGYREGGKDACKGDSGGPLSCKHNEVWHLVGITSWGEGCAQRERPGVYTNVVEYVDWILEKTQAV
T1 sequence (P03951 19-387 partner limits assumed): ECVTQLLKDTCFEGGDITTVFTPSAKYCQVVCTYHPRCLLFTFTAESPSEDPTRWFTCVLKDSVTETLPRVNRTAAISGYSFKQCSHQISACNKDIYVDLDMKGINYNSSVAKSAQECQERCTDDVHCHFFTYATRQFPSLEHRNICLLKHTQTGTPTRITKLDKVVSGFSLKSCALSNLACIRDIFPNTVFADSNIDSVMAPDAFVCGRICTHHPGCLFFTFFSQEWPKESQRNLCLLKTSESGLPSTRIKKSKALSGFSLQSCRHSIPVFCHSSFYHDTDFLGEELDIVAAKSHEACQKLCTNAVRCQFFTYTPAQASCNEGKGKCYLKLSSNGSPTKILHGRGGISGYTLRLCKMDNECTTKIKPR
Description: (§1) The factor XIa inhibition of the substances according to the invention is determined using a biochemical test system which utilizes the reaction of a peptidic factor XIa substrate to determine the enzymatic activity of human factor XIa. Here, factor XIa cleaves from the peptic factor XIa substrate the C-terminal aminomethylcoumarin (AMC), the fluorescence of which is measured. The determinations are conducted in microtitre plates.
Test substances are dissolved in dimethyl sulfoxide and serially diluted in dimethyl sulfoxide (3000 μM to 0.0078 μM; resulting final concentrations in the test: 50 μM to 0.00013 μM). 1 μl of the diluted substance solutions is placed into each of the wells of white microtitre plates from Greiner (384 wells). 20 μl of assay buffer (50 mM of Tris/HCl pH 7.4; 100 mM of sodium chloride; 5 mM of calcium chloride; 0.1% of bovine serum albumin) and 20 μl of factor XIa from Kordia (0.45 nM in assay buffer) are then added successively. After 15 min of incubation, the enzyme reaction is started by addition of 20 μl of the factor XIa substrate Boc-Glu(OBzl)-Ala-Arg-AMC dissolved in assay buffer (10 μM in assay buffer) from Bachem, the mixture is incubated at room temperature (22° C.) for 30 min and fluorescence is then measured (excitation: 360 nm, emission: 460 nm). The measured emissions of the test batches with test substance are compared to those of control batches without test substance (only dimethyl sulfoxide instead of test substance in dimethyl sulfoxide), and IC50 values are calculated from the concentration/activity relationships. Activity data from this test are given in Table A below (in some cases as averages from multiple individual determinations): […]

human plasma kallikrein = target: T2, human plasma kallikrein (Homo sapiens, UniProt P03952); assay: Determination of the plasma kallikrein activity (fluorogenic peptide substrate, AMC cleavage); format: biochemical; details: plasma kallikrein from Kordia 0.6 nM; substrate H-Pro-Phe-Arg-AMC 10 μM; 30 min at 22° C.; in some cases averages from multiple determinations
T2 construct: purchased Kordia
T2 sequence (P03952 391-638 limits assumed): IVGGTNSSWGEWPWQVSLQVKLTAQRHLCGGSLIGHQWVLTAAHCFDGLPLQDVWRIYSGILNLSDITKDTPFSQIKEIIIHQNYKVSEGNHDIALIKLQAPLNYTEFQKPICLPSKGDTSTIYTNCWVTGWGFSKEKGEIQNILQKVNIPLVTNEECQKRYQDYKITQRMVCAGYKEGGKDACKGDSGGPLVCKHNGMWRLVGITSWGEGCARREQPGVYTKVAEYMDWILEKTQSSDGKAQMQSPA
T2 sequence (P03952 20-390 partner limits assumed): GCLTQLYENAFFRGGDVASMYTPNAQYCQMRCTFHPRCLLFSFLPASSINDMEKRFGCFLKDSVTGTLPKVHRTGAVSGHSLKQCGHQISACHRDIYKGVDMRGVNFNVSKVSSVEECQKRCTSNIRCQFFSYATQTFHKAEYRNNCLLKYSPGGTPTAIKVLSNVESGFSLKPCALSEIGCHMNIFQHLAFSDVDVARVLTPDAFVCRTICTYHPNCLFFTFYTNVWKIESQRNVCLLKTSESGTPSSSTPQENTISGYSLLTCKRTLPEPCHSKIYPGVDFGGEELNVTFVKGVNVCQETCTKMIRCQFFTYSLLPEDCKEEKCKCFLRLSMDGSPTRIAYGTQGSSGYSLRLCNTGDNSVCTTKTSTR
Description: as §1, with “To determine the plasma kallikrein” for “The factor XIa”, “invention,” for “invention is determined using”, “system is used” for “system”, “plasma kallikrein” for “factor XIa”, “plasma kallikrein.” for “factor XIa.”
Test substances are dissolved in dimethyl sulfoxide and serially diluted in dimethyl sulfoxide (3000 μM to 0.0078 μM; resulting final concentrations in the test: 50 μM to 0.00013 μM). 1 μl of the diluted substance solutions is placed into each of the wells of white microtitre plates from Greiner (384 wells). 20 μl of assay buffer (50 mM Tris/HCl pH 7.4; 100 mM sodium chloride solution; 5 mM calcium chloride solution; 0.1% of bovine serum albumin) and 20 μl of plasma kallikrein from Kordia (0.6 nM in assay buffer) are then added successively. After 15 min of incubation, the enzyme reaction is started by addition of 20 μl of the substrate H-Pro-Phe-Arg-AMC dissolved in assay buffer (10 μM in assay buffer) from Bachem, the mixture is incubated at room temperature (22° C.) for 30 min and fluorescence is then measured (excitation: 360 nm, emission: 460 nm). The measured emissions of the test batches with test substance are compared to those of control batches without test substance (only dimethyl sulfoxide instead of test substance in dimethyl sulfoxide), and IC50 values are calculated from the concentration/activity relationships. Activity data from this test are given in Table B below (in some cases as averages from multiple individual determinations): […]

SMILES | pIC50 (human factor XIa) | pIC50 (human plasma kallikrein)
COc1cn(C(CCOC(C)C)C(=O)Nc2ccc(C(=O)O)cc2)c(=O)cc1-c1cc(Cl)ccc1OCC(F)(F)F (racemic) [Example 34, 4-[(2-{4-[5-Chloro-2-(2,2,2-trifluoroethoxy)phenyl]-5-methoxy-2-oxopyridin-1(2H)-yl}-4-isopropoxybutanoyl)amino]benzoic acid] | 8.72 | 7.35
COc1cn(C(C[C@H](C)OC)C(=O)Nc2ccc(C(=O)O)cc2)c(=O)cc1-c1cc(Cl)ccc1OCC(F)(F)F (mixture of isomers) [Example 35, 4-{[(4S)-2-{4-[5-Chloro-2-(2,2,2-trifluoroethoxy)phenyl]-5-methoxy-2-oxopyridin-1(2H)-yl}-4-methoxypentanoyl]amino}benzoic acid] | 8.62 | 6.89
CNC(=O)c1ccc(NC(=O)C(C[C@H](C)OC)n2cc(OC)c(-c3cc(Cl)ccc3OCC(F)(F)F)cc2=O)cn1 (mixture of isomers) [Example 36, 5-{[(4S)-2-{4-[5-Chloro-2-(2,2,2-trifluoroethoxy)phenyl]-5-methoxy-2-oxopyridin-1(2H)-yl}-4-methoxypentanoyl]amino}-N-methylpyridine-2-carboxamide] | 8.21 | 7.15
COc1cn(C(C[C@H](C)OC)C(=O)Nc2ccc3nn(C)cc3c2)c(=O)cc1-c1cc(Cl)ccc1OCC(F)(F)F (mixture of isomers) [Example 37, (4S)-2-{4-[5-Chloro-2-(2,2,2-trifluoroethoxy)phenyl]-5-methoxy-2-oxopyridin-1(2H)-yl}-4-methoxy-N-(2-methyl-2H-indazol-5-yl)pentanamide] | 8.10 | 7.14
COc1cn(C(CCOC(F)(F)F)C(=O)Nc2ccc3nn(C)cc3c2)c(=O)cc1-c1cc(Cl)ccc1OCC(F)(F)F (racemic) [Example 38, 2-{4-[5-Chloro-2-(2,2,2-trifluoroethoxy)phenyl]-5-methoxy-2-oxopyridin-1(2H)-yl}-N-(2-methyl-2H-indazol-5-yl)-4-(trifluoromethoxy)butanamide] | 7.89 | 7.03
COc1cn(C(CCOC(C)C)C(=O)Nc2ccc3nn(C)cc3c2)c(=O)cc1-c1cc(Cl)ccc1OCC(F)(F)F (racemic) [Example 39, 2-{4-[5-Chloro-2-(2,2,2-trifluoroethoxy)phenyl]-5-methoxy-2-oxopyridin-1(2H)-yl}-4-isopropoxy-N-(2-methyl-2H-indazol-5-yl)butanamide] | 7.80 | 7.25
COc1cn(C(C[C@H](C)OC)C(=O)Nc2ccc(C(N)=O)c(F)c2)c(=O)cc1-c1cc(Cl)ccc1OCC(F)(F)F (mixture of isomers) [Example 40, 4-{[(4S)-2-{4-[5-Chloro-2-(2,2,2-trifluoroethoxy)phenyl]-5-methoxy-2-oxopyridin-1(2H)-yl}-4-methoxypentanoyl]amino}-2-fluorobenzamide] | 7.72 | 6.64
COc1cn(C(CCOC(C)C)C(=O)Nc2ccc(C(N)=O)c(F)c2)c(=O)cc1-c1cc(Cl)ccc1OCC(F)(F)F (racemic) [Example 41, 4-[(2-{4-[5-Chloro-2-(2,2,2-trifluoroethoxy)phenyl]-5-methoxy-2-oxopyridin-1(2H)-yl}-4-isopropoxybutanoyl)amino]-2-fluorobenzamide] | 7.60 | 6.89
COc1cn(C(CCOC(F)(F)F)C(=O)Nc2ccc(C(N)=O)c(F)c2)c(=O)cc1-c1cc(Cl)ccc1OCC(F)(F)F (racemic) [Example 42, 4-{[2-{4-[5-Chloro-2-(2,2,2-trifluoroethoxy)phenyl]-5-methoxy-2-oxopyridin-1(2H)-yl}-4-(trifluoromethoxy)butanoyl]amino}-2-fluorobenzamide] | 7.54 | 6.72
COc1cn(C(CCOC2(C)CCC2)C(=O)Nc2ccc(C(=O)O)cc2)c(=O)cc1-c1cc(Cl)ccc1OCC(F)(F)F (racemic) [Example 55, 4-[(2-{4-[5-Chloro-2-(2,2,2-trifluoroethoxy)phenyl]-5-methoxy-2-oxopyridin-1(2H)-yl}-4-[(1-methylcyclobutyl)oxy]butanoyl)amino]benzoic acid] | 8.74 | 7.49
